System: primary rat mixed cortical cells
Assay: In vitro myelination assay (MBP positive myelin strands, fold myelin pixels above background)
Assay type: cell-based
Details: Rattus norvegicus, relative to baseline of no added compound; for fold induction at 1 µM: 1.0 μM compound, read-out: Fold myelin pixels above background, 1.0 μM; for fold induction at 10 µM: 10.0 μM compound, read-out: Fold myelin pixels above background, 10.0 μM
In short: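 Compounds at 1.0 and 10.0 μM were incubated 14 days with dissociated P1 rat cortical cells, which were then fixed and immunostained for MBP. Myelination was scored as fold MBP myelin pixels per well over the no-compound baseline.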

SMILES: Cc1cc(Nc2ncn(-c3cc(C)ccn3)n2)cc(N2CCN(C3COC3)CC2)c1 [Compound 54, N-[3-methyl-5-[4-(oxetan-3-yl)piperazin-1-yl]phenyl]-1-(4-methyl-2-pyridyl)-1,2,4-triazol-3-amine]
- fold induction at 1 µM: 10 to 100
- fold induction at 10 µM: 100 to 1000

SMILES: Clc1cccc(-n2cnc(Nc3cc(C4CC4)cc(N4CCN(C5COC5)CC4)c3)n2)c1 [Compound 55, 1-(3-chlorophenyl)-N-[3-cyclopropyl-5-[4-(oxetan-3-yl)piperazin-1-yl]phenyl]-1,2,4-triazol-3-amine]
- fold induction at 1 µM: 100 to 1000
- fold induction at 10 µM: ≤ 1

SMILES: COc1cc(F)cc(-n2cnc(Nc3cc(C)cc(N4CCN(C5COC5)CC4)c3)n2)c1 [Compound 56, 1-(3-fluoro-5-methoxy-phenyl)-N-[3-methyl-5-[4-(oxetan-3-yl)piperazin-1-yl]phenyl]-1,2,4-triazol-3-amine]
- fold induction at 1 µM: 100 to 1000
- fold induction at 10 µM: 100 to 1000

SMILES: Cc1cc(Nc2ncn(-c3ccccc3)n2)cc(N2CCNC([C@](C)(O)C(C)C)C2)n1 (stereo partly drawn) [Compound 57, (2R)-3-methyl-2-[4-[6-methyl-4-[(1-phenyl-1,2,4-triazol-3-yl)amino]-2-pyridyl]piperazin-2-yl]butan-2-ol]
- fold induction at 1 µM: 100 to 1000
- fold induction at 10 µM: ≤ 1

SMILES: CCc1cc(Nc2ncn(-c3cc(C)ncn3)n2)cc(N2CCN(C3COC3)CC2)c1 [Compound 58, N-[3-ethyl-5-[4-(oxetan-3-yl)piperazin-1-yl]phenyl]-1-(6-methylpyrimidin-4-yl)-1,2,4-triazol-3-amine]
- fold induction at 1 µM: 100 to 1000
- fold induction at 10 µM: 100 to 1000

SMILES: Cc1cc(Nc2ncn(-c3ccccc3)n2)cc(N2CCNC(CO)C2)c1 (stereo not shown) [Compound 59, [4-[3-methyl-5-[(1-phenyl-1,2,4-triazol-3-yl)amino]phenyl]piperazin-2-yl]methanol]
- fold induction at 1 µM: 100 to 1000
- fold induction at 10 µM: 100 to 1000

SMILES: Cc1cc(Nc2ncn(-c3ccccc3)n2)cc(C2CCCN(C)C2)c1 (stereo not shown) [Compound 60, N-[3-methyl-5-(1-methyl-3-piperidyl)phenyl]-1-phenyl-1,2,4-triazol-3-amine]
- fold induction at 1 µM: 1000 to 10000
- fold induction at 10 µM: ≤ 1

SMILES: Cc1cc(Nc2ncn(-c3cc(F)cc(F)c3)n2)cc(C2=CCN(C3COC3)CC2)c1 [Compound 61, 1-(3,5-difluorophenyl)-N-[3-methyl-5-[1-(oxetan-3-yl)-3,6-dihydro-2H-pyridin-4-yl]phenyl]-1,2,4-triazol-3-amine]
- fold induction at 1 µM: 1000 to 10000
- fold induction at 10 µM: ≤ 1

SMILES: FC(F)c1cc(Nc2ncn(-c3ccccc3)n2)cc(N2CCNCC2)c1 [Compound 62, N-[3-(difluoromethyl)-5-piperazin-1-yl-phenyl]-1-phenyl-1,2,4-triazol-3-amine]
- fold induction at 1 µM: 1000 to 10000
- fold induction at 10 µM: ≤ 1

SMILES: CN1CCN(c2cc(Nc3ncn(-c4cc(F)cc(F)c4)n3)cc(C(F)(F)F)c2)CC1 [Compound 63, 1-(3,5-difluorophenyl)-N-[3-(4-methylpiperazin-1-yl)-5-(trifluoromethyl)phenyl]-1,2,4-triazol-3-amine]
- fold induction at 1 µM: 10 to 100
- fold induction at 10 µM: 1 to 10

SMILES: CSc1nccc(-n2cnc(Nc3cc(C)cc(N4CCN(C5COC5)CC4)c3)n2)n1 [Compound 64, N-[3-methyl-5-[4-(oxetan-3-yl)piperazin-1-yl]phenyl]-1-(2-methylsulfanylpyrimidin-4-yl)-1,2,4-triazol-3-amine]
- fold induction at 1 µM: 10 to 100
- fold induction at 10 µM: ≤ 1

SMILES: Cc1cc(Nc2ncn(-c3ccccc3)n2)cc(C2CN(C3COC3)C2)c1 [Compound 65, N-[3-methyl-5-[1-(oxetan-3-yl)azetidin-3-yl]phenyl]-1-phenyl-1,2,4-triazol-3-amine]
- fold induction at 1 µM: 1000 to 10000
- fold induction at 10 µM: 1 to 10

SMILES: Cc1cc(Nc2ncn(-c3cc(F)c(C#N)cc3F)n2)cc(N2CCN(C3COC3)CC2)c1 [Compound 66, 2,5-difluoro-4-[3-[3-methyl-5-[4-(oxetan-3-yl)piperazin-1-yl]anilino]-1,2,4-triazol-1-yl]benzonitrile]
- fold induction at 1 µM: 10 to 100
- fold induction at 10 µM: 10 to 100

SMILES: Cc1cc(Nc2ncn(-c3cc(F)cc(F)c3)n2)cc(N2CCN(C3COC3)CC2=O)c1 [Compound 67, 1-[3-[[1-(3,5-difluorophenyl)-1,2,4-triazol-3-yl]amino]-5-methyl-phenyl]-4-(oxetan-3-yl)piperazin-2-one]
- fold induction at 1 µM: 1 to 10
- fold induction at 10 µM: 10 to 100

SMILES: Cc1cc(Nc2ncn(-c3cnccn3)n2)cc(N2CCN(C)CC2)c1 [Compound 68, N-[3-methyl-5-(4-methylpiperazin-1-yl)phenyl]-1-pyrazin-2-yl-1,2,4-triazol-3-amine]
- fold induction at 1 µM: 100 to 1000
- fold induction at 10 µM: 1000 to 10000

SMILES: CCc1cc(Nc2ncn(-c3ccc(F)c(F)c3)n2)cc(N2CCN(C3COC3)CC2)c1 [Compound 69, 1-(3,4-difluorophenyl)-N-[3-ethyl-5-[4-(oxetan-3-yl)piperazin-1-yl]phenyl]-1,2,4-triazol-3-amine]
- fold induction at 1 µM: 1000 to 10000
- fold induction at 10 µM: 10 to 100

SMILES: Cc1ccc(-n2cnc(Nc3cc(C)cc(N4CCN(C5COC5)CC4)c3)n2)cc1 [Compound 70, N-[3-methyl-5-[4-(oxetan-3-yl)piperazin-1-yl]phenyl]-1-(p-tolyl)-1,2,4-triazol-3-amine]
- fold induction at 1 µM: ≤ 1
- fold induction at 10 µM: 10 to 100

SMILES: Cc1cc(Nc2ncn(-c3ccccc3)n2)cc(C2CCN(C3COC3)CC2)c1 [Compound 71, N-[3-methyl-5-[1-(oxetan-3-yl)-4-piperidyl]phenyl]-1-phenyl-1,2,4-triazol-3-amine]
- fold induction at 1 µM: 1000 to 10000
- fold induction at 10 µM: ≤ 1

SMILES: CCOC(=O)CN1CCN(c2cc(C)cc(Nc3ncn(-c4cc(F)cc(F)c4)n3)c2)CC1 [Compound 72, ethyl 2-[4-[3-[[1-(3,5-difluorophenyl)-1,2,4-triazol-3-yl]amino]-5-methyl-phenyl]piperazin-1-yl]acetate]
- fold induction at 1 µM: 10 to 100
- fold induction at 10 µM: 1 to 10

SMILES: Cc1cc(F)cc(-n2cnc(Nc3cc(C4CC4)cc(N4CCN(C5COC5)CC4)c3)n2)c1 [Compound 73, N-[3-cyclopropyl-5-[4-(oxetan-3-yl)piperazin-1-yl]phenyl]-1-(3-fluoro-5-methyl-phenyl)-1,2,4-triazol-3-amine]
- fold induction at 1 µM: 100 to 1000
- fold induction at 10 µM: ≤ 1

SMILES: Cc1cc(Nc2ncn(-c3cnccn3)n2)cc(C2CCCN(C3COC3)C2)c1 (stereo not shown) [Compound 74, N-[3-methyl-5-[1-(oxetan-3-yl)-3-piperidyl]phenyl]-1-pyrazin-2-yl-1,2,4-triazol-3-amine]
- fold induction at 1 µM: 100 to 1000
- fold induction at 10 µM: 100 to 1000

SMILES: Cc1cc(Nc2ncn(-c3cnccn3)n2)cc(N2CCN(C3CC(F)(F)C3)CC2)c1 [Compound 75, N-[3-[4-(3,3-difluorocyclobutyl)piperazin-1-yl]-5-methyl-phenyl]-1-pyrazin-2-yl-1,2,4-triazol-3-amine]
- fold induction at 1 µM: ≤ 1
- fold induction at 10 µM: 100 to 1000

SMILES: Cc1cc(Nc2ncn(-c3ccccc3)n2)cc(N2CCN(C)C(=O)C2)c1 [Compound 76, 1-methyl-4-[3-methyl-5-[(1-phenyl-1,2,4-triazol-3-yl)amino]phenyl]piperazin-2-one]
- fold induction at 1 µM: 100 to 1000
- fold induction at 10 µM: 100 to 1000

SMILES: Cc1cc(Nc2ncn(-c3cc(F)cc(F)c3)n2)cc(N2CCNCC2)c1 [Compound 77, 1-(3,5-difluorophenyl)-N-(3-methyl-5-piperazin-1-yl-phenyl)-1,2,4-triazol-3-amine]
- fold induction at 1 µM: 100 to 1000
- fold induction at 10 µM: ≤ 1

SMILES: Cc1cc(Nc2ncn(-c3cc(F)cc(F)c3)n2)cc(N2C[C@@H]3C[C@H]2CN3C2CC2)c1 [Compound 78, N-[3-[(1S,4S)-2-cyclopropyl-2,5-diazabicyclo[2.2.1]heptan-5-yl]-5-methyl-phenyl]-1-(3,5-difluorophenyl)-1,2,4-triazol-3-amine]
- fold induction at 1 µM: 100 to 1000
- fold induction at 10 µM: ≤ 1

SMILES: Cc1cc(Nc2ncn(-c3cc(F)cc(F)c3)n2)cc(N2CCN(C(CO)CO)CC2)c1 [Compound 79, 2-[4-[3-[[1-(3,5-difluorophenyl)-1,2,4-triazol-3-yl]amino]-5-methyl-phenyl]piperazin-1-yl]propane-1,3-diol]
- fold induction at 1 µM: 10 to 100
- fold induction at 10 µM: ≤ 1

SMILES: Fc1cc(Nc2ncn(-c3ccccc3)n2)cc(N2CCOCC2)c1 [Compound 80, N-(3-fluoro-5-morpholino-phenyl)-1-phenyl-1,2,4-triazol-3-amine]
- fold induction at 1 µM: 10 to 100
- fold induction at 10 µM: 1000 to 10000

SMILES: Cc1cc(Nc2ncn(-c3ccc(C#N)cc3)n2)cc(N2CCN(C)CC2)c1 [Compound 81, 4-[3-[3-methyl-5-(4-methylpiperazin-1-yl)anilino]-1,2,4-triazol-1-yl]benzonitrile]
- fold induction at 1 µM: 1 to 10
- fold induction at 10 µM: ≤ 1

SMILES: Fc1cc(F)cc(-n2cnc(Nc3cc(C(F)F)cc(N4CCN(C5COC5)CC4)c3)n2)c1 [Compound 82, N-[3-(difluoromethyl)-5-[4-(oxetan-3-yl)piperazin-1-yl]phenyl]-1-(3,5-difluorophenyl)-1,2,4-triazol-3-amine]
- fold induction at 1 µM: 1000 to 10000
- fold induction at 10 µM: 100 to 1000

SMILES: Fc1cc(Nc2ncn(-c3ccccc3F)n2)cc(N2CCCC2)c1 [Compound 83, 1-(2-fluorophenyl)-N-(3-fluoro-5-pyrrolidin-1-yl-phenyl)-1,2,4-triazol-3-amine]
- fold induction at 1 µM: ≤ 1
- fold induction at 10 µM: 10 to 100

SMILES: Cc1cc(Nc2ncn(-c3ccncc3)n2)cc(N2CCOCC2)c1 [Compound 84, N-(3-methyl-5-morpholino-phenyl)-1-(4-pyridyl)-1,2,4-triazol-3-amine]
- fold induction at 1 µM: 1000 to 10000
- fold induction at 10 µM: 10 to 100

SMILES: Fc1cc(-n2cnc(Nc3cc(C(F)F)cc(N4CCOCC4)c3)n2)ccn1 [Compound 85, N-[3-(difluoromethyl)-5-morpholino-phenyl]-1-(2-fluoro-4-pyridyl)-1,2,4-triazol-3-amine]
- fold induction at 1 µM: 100 to 1000
- fold induction at 10 µM: 100 to 1000
